Data set [1] relates to S. aureus (CICC 10384). Put plainly: Bactericidal time-kill kinetics. Format: cell-based, Staphylococcus aureus. Here is the method: The bacteria S. aureus was prepared in Muellere Hinton broth at 37 °C for 6 h with shaking. The solution of 3c (1 × MIC and 6 × MIC), 5a (1 × MIC and 6 × MIC), harmine (1 × MIC and 6 × MIC) and saline (served as a control group) were separately added to the bacterial suspension so that the final bacterial concentration were 10^6~10^7 CFU/mL. At the predetermined time point (0, 0.5, 2, 4, 6, 12 and 24 h), […] of aliquots were serially diluted in normal saline, plated on sterile Muellere Hinton agar plates, and incubated at 37 °C for 24 h. After incubation, the viable colonies were counted and represented as log10 (CFU/mL). The same procedure was repeated in triplicate.
Figure 3 Time-kill kinetics of compound 3c (A) and 5a (B) at 1 × and 6 × MIC against S. aureus (CICC 10384).

The subject of data set [2] is Pseudomonas aeruginosa CVCC 3359 (PA). Put plainly: MIC, microplate dilution method. Format: cell-based. The settings on record: read-out: MIC PA. An excerpt:
(§1) According to microplate dilution method, all the prepared compounds were screened for their in vitro antibacterial activity. The investigation included three representative Gram-positive strains, including Staphylococcus aureus CICC 10384 (S. aureus), Staphylococcus albus CICC 20237 (S. albus) and methicillinresistant Staphylococcus aureus ATCC 43300 (MRSA), and two representative Gram-negative strains, including Escherichia coli CICC 10389 (E. coli) and Pseudomonas aeruginosa CVCC 3359 (PA). Harmine and cinnamic acid were used as reference drugs.
(§2) The antibacterial efficiency of all prepared compounds was determined using the microplate dilution method. All compounds were prepared into different concentrations of stock solution according to their solubility. The compounds were added to the 96 well plate and serially diluted in Mueller-Hinton broth. Three Gram-positive strains (S. aureus, S. albus and MRSA) and two Gram-negative strains (E. coli and PA) were cultivated and added to the 96 well plate. The initial concentration of bacteria should be higher than 10^5 CFU/mL. The samples were incubated at 37 °C for 18–24 h. The MIC was determined for compounds by observing change of clarity in the broth. The same procedure was repeated in triplicate.

Data set [3] concerns Staphylococcus aureus CICC 10384 (S. aureus). Put plainly: MIC, microplate dilution method. Conditions: read-out: MIC S. aureus. Format: cell-based.
Excerpt: as §1, §2

Data set [4] deals with Staphylococcus albus CICC 20237 (S. albus). As to the kind of experiment: MIC, microplate dilution method. Format: cell-based. Conditions: read-out: MIC S. albus.
Excerpt: as §1, §2

In data set [5] the test system is Escherichia coli CICC 10389 (E. coli). Put plainly: MIC, microplate dilution method. Format: cell-based. Conditions: read-out: MIC E. coli.
Excerpt: as §1, §2

Data set [6] concerns methicillinresistant Staphylococcus aureus ATCC 43300 (MRSA). As to the kind of experiment: MIC, microplate dilution method. Format: cell-based. Conditions: read-out: MIC MRSA.
Excerpt: as §1, §2

For data set [7], the system named is HepG2 (human liver carcinoma cells). As to the kind of experiment: In vitro cytotoxic activity, MTT assay. Format: cell-based. Conditions: read-out: IC50 HepG2. On the procedure:
(§3) In vitro cytotoxic activity of 3c was evaluated using MTT (3-(4,5)-dimethylthi ahiazo (-2)-3,5-diphenytetrazoliiumromide) assay using WI-38 (Human embryonic lung fibroblasts), MCF-7 (human breast cancer cells) and HepG2 (human liver carcinoma cells). Harmine was used as a control.
(§4) The in vitro cytotoxicity of 3c was determined using MTT assay. WI-38 (Human embryonic lung fibroblasts), MCF-7 (Human breast cancer cells) and HepG2 (human liver carcinoma cells) were purchased from American Type Culture Collection (Manassas, VA, USA). The cells were maintained using Dulbecco’s modified eagle’s medium (DMEM, Sangon Biotech, Shanghai, China) supplemented with 10% fetal bovine serum (FBS, Sijiqing Bioengineering Material Co., Ltd., Hangzhou, China), 100 U/mL penicillin and 100 μg/mL streptomycin in a humidified 37 °C incubator under 5% CO2. 100 μL culture medium at a concentration of 1 × 10^4 cells/mL was added to 96-well plate and incubated in a humidified 37 °C incubator under 5% CO2. After 24 h, 10 µL solution of 3c and harmine dissolved in DMSO and PBS and then diluted with DMEM under a concentration gradient, which was added in the wells for final concentrations of 1000, 500, 250, 125, 62.5 µmol/L of compounds in WI-38 and 160, 80, 40, 20, 10 µmol/L of compounds in MCF-7 and Hep-G2. After 48 h incubation, 10 μL MTT solution (5 mg/mL) was added into each well and incubated in a humidified 37 °C incubator under 5% CO2. After 4 h, the supernatant was removed and 150 μL DMSO was added. The absorbance of each well was determined by an enzyme-linked immunosorbent assay reader (Thermo Fisher Scientific Inc., Rochester, NY, USA) at wavelengths of 570 nm. The experiments were performed in triplicate.
(In general: Tetrazolium dyes change colour on reduction, which living cells bring about.)

Data set [8] deals with MCF-7 (human breast cancer cells). Put plainly: In vitro cytotoxic activity, MTT assay. Conditions: read-out: IC50 MCF-7. Format: cell-based. Here is the method:
as §3, §4

Data set [9] relates to WI-38 (Human embryonic lung fibroblasts). Put plainly: In vitro cytotoxic activity, MTT assay. Format: cell-based. The settings on record: read-out: IC50 WI-38. On the procedure:
as §3, §4

Data set [10] in a line: In vivo pharmacokinetic study in rats. The settings on record: both sexes, Sprague-Dawley, plasma, rat. Here is the method: Adult males and females Sprague Dawley rats, with average weight of 200–250 g, were purchased from the Experiment Animal Center of Lanzhou University (Lanzhou, China). The rats were housed under an environmentally controlled room for one week before staring the experiment. All procedures were performed according to the guidelines issued by the Ethical Committee of Lanzhou University (Permit Number: SYXK(Gan)-2018-0002).
After 7 days acclimatization, rats were randomly divided into two groups with half male and half female in each group (n = 6). All animals were fasted for 12 h with access to water prior to dosing. One group was intravenously administered with 3c at dose of 10 mg/kg. Another group was oral administered with 3c at dose of 40 mg/kg. Approximately 0.3 mL of blood samples were collected into heparinized tubes from the orbital vein at 0.083, 0.25, 0.5, 0.75, 1, 2, 4, 8, 12 and 24 h after the administration. The heparinized blood samples were immediately centrifuged at 4000 rpm for 10 min and the upper plasma was separated and immediately stored at −20 °C used for UPLC-MS/MS analysis.
Plasma samples were processed as follows. First, 100 μL of plasma samples and 50 μL of tinidazole (1000 ng/mL, internal standard) were mixed by vortex for 1 min. Next, 250 μL of acetonitrile were added to the mixture and vortexed for 10 min. After centrifugation at 10,000 rpm for 10 min, 200 μL of the upper organic layer were removed into 1.5 mL centrifuge tube and dried with nitrogen. Finally, the residue was reconstituted in 100 μL of 50% acetonitrile, vortexed for 1 min, centrifuged at 10,000 rpm for 10 min, and then the supernatant was used for UPLC-MS/MS analysis.
The obtained data were analyzed using a non-compartment open model with PKsolver Software. Pharmacokinetic parameters and the experiment data were expressed as the mean ± standard deviation (SD). A paired student’s t-test was used for statistical analysis, with p < 0.05 considered the minimum level of significance.

The mark [11] stands for this setting: Gram-negative, Mueller-Hinton broth, 37 °C, 18–24 h.
Setting [12] is: Gram-positive, Mueller-Hinton broth, 37 °C, 18–24 h.
[13] abbreviates: iv, i.v. 10 mg/kg, single dose, n = 6, Mean ± SD.
The mark [14] stands for this setting: po, i.g. 40 mg/kg, single dose, n = 6, Mean ± SD.

Experimental findings from PMC8400480, “Synthesis, Antibacterial and Pharmacokinetic Evaluation of Novel Derivatives of Harmine N^9-Cinnamic Acid” (Molecules, 2021) are described below.

Structures are written as SMILES. In brackets after ≈: the same amount, converted by molar mass. Read-outs that look alike come from different tables or passages of the source.

For `COc1ccc2c3ccnc(C)c3n(CCCOC(=O)/C=C/c3ccccc3[N+](=O)[O-])c2c1` [Compound 3c, 4-(7-Methoxy-1-methyl-9H-pyridine [3,4-b]indole-9-yl) propyl(E)-3-(2-nitrophenyl) acrylate], the melting point is 128.6 to 129.3 °C. Moreover, in [1] (1 × MIC), the “time to 4-log10 reduction” value is “about 4 h”. For the same compound, the “time to completely kill the bacteria” value in [1] (6 × MIC) was at most 0.5 h. Besides, in data set [2] (setting [11]), the MIC turned out to be 219 µg/mL (≈ 491 µM). For the same compound, the MIC in data set [3] (setting [12]) is 13.7 µg/mL (≈ 30.7 µM). For the same compound, the MIC in data set [4] (setting [12]) stood at 13.7 µg/mL (≈ 30.7 µM). Besides, the MIC in data set [5] (setting [11]) was 219 µg/mL (≈ 491 µM). The minimal inhibitory concentration (MIC) in data set [6] (setting [12]) amounted to 54.7 µg/mL (≈ 123 µM). Also, the IC50 in data set [7] (HepG2, MTT, 48 h incubation, n = 3, Mean ± SD) worked out at 161.7 ± 1.31 µM. Moreover, the IC50 in [8] (MCF7, MTT, 48 h incubation, n = 3, Mean ± SD) worked out at 94.9 ± 3.64 µM. In addition, the IC50 in [9] (WI-38, MTT, 48 h incubation, n = 3, Mean ± SD) was determined as 340.3 ± 2.79 µM. Also, in data set [10] (setting [13]), the AUC(0-inf) is 1050 ± 231 ng·h/mL, the AUC(0-t) turned out to be 1050 ± 229 ng·h/mL, the peak level (Cmax) was 837 ± 229 ng/mL and the MRT was 2.86 ± 0.71 h. In [10] (setting [13]), the Tmax turned out to be 0.083 ± 0.03 h and the half-life is 2.27 ± 0.62 h. The compound further returned a bioavailability in [10] (oral, i.g. 40 mg/kg vs i.v. 10 mg/kg, from AUC0→∞) of 6.9%. Moreover, in data set [10] (setting [14]), the AUC(0-inf) amounted to 290 ± 55.2 ng·h/mL, the AUC(0-t) turned out to be 284 ± 54.4 ng·h/mL, the apparent clearance (CL/F) was 4.33 mL/min/kg and the Cmax is 159 ± 59.6 ng/mL. Besides, in data set [10] (setting [14]), the MRT was 3.33 ± 0.83 h, the Tmax came out at 0.25 ± 0.033 h and the half-life was 1.3 ± 0.47 h.

As to `COc1ccc2c(c1)[nH]c1c(C)nccc12` [Harmine, 7-methoxy-1-methyl-9H-pyridine [3,4-b] indole], in data set [1] (1 × MIC), the “time-kill effect in words” value was “just slowed bacterial propagation”. In addition, the “time to 4-log10 reduction” value in [1] (6 × MIC) was “about 24 h”. Also, the MIC in [2] worked out at 15.6 µg/mL (≈ 73.6 µM); in [3] it was 31.2 µg/mL (≈ 147 µM); in data set [4] it was 15.6 µg/mL (≈ 73.6 µM); in data set [5], 15.6 µg/mL (≈ 73.6 µM); in data set [6], 62.5 µg/mL (≈ 294 µM). Moreover, the IC50 is 67.6 ± 1.6 µM in data set [7] (HepG2, 48 h); 78.9 ± 2.82 µM in data set [8] (MCF7, 48 h); 103.4 ± 0.96 µM in [9] (WI-38, 48 h).

Usually MIC stands for the least concentration at which growth counts as inhibited. One may read the IC50 as the concentration at which inhibition is half-maximal. One may read the melting point as the temperature, or range, at which the solid turns liquid. For orientation: AUC(0-inf) means total exposure, with the tail of the curve extrapolated. A higher AUC(0-inf) goes with more exposure. By AUC(0-t) is commonly meant exposure summed from dosing to a finite time, without extrapolation to infinity. The Cmax is the peak of the concentration-time curve. Usually MRT stands for the average time that molecules of a dose stay in the body. One may read the Tmax as the time at which the peak concentration occurs. For orientation: half-life means how long it takes for the measured level to halve. A high value points to slow decline. In general, bioavailability refers to dose-corrected exposure relative to a reference, in per cent. Lower therefore signals little systemic uptake. Broadly, the CL/F is clearance divided by bioavailability, as obtained after extravascular dosing.
